Bounds are passed on as bounds.

This note sets out measurements from EP4592286A1, “MACROCYCLIC NITROGEN-CONTAINING CROWN ETHER COMPOUND AND USE THEREOF AS PROTEIN KINASE INHIBITOR” (Artivila Biopharma, priority 2022, dated 2024).

Format in all cases: biochemical
One experiment has as its target JAK2 (Homo sapiens, UniProt O60674). The experiment in a line: experiment of inhibiting kinase activity (Caliper mobility shift assay), JAK2. The settings on record: for inhibition at 0.01 µM: at 10 nM; for inhibition at 0.01 µM / inhibition at 0.1 µM: read-out: inhibition rate JAK2; for inhibition at 0.1 µM: at 100 nM; for IC50: kinase activity assay, Table 3. The method in brief:
(§1)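 Inhibition is measured as reduced conversion of substrate by the kinase, separated by microfluidic mobility shift after a room-temperature reaction started with ATP/substrate following a 10-min compound preincubation. Test doses are 10 nM, 100 nM, or a 10-point 3-fold series from 10 µM.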

Another experiment deals with T1, JAK3 (Homo sapiens, UniProt P52333).
T1 sequence (P52333 1-1124): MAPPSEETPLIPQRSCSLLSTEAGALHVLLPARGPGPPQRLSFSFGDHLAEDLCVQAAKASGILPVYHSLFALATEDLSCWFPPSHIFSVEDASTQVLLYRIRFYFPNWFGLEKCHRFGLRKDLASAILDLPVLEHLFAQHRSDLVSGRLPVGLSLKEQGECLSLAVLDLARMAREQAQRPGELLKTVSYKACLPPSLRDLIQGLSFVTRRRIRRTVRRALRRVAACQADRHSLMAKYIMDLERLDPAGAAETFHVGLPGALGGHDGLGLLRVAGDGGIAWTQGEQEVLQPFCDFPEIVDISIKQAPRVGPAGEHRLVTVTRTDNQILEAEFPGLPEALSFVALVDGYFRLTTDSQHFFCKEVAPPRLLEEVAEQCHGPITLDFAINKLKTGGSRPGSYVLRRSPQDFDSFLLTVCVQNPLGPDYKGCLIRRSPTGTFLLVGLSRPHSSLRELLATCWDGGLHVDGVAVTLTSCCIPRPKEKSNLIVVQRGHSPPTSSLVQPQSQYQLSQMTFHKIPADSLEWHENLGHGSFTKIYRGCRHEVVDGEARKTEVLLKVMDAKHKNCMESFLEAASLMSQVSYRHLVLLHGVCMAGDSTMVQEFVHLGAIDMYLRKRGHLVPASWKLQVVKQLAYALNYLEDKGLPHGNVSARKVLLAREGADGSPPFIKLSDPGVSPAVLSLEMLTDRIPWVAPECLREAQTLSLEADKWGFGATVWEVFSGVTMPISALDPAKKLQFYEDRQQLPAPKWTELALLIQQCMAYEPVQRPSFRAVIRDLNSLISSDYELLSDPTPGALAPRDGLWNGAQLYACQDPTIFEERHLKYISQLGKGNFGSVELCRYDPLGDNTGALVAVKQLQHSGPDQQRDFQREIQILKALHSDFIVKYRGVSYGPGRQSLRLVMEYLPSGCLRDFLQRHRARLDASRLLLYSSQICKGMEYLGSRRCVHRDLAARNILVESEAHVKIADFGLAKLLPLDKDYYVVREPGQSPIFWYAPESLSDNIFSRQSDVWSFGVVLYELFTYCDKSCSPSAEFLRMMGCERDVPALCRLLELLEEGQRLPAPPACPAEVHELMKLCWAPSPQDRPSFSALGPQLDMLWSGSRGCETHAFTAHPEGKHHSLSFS
The experiment in a line: experiment of inhibiting kinase activity (Caliper mobility shift assay), JAK3. The settings on record: for inhibition at 0.01 µM: at 10 nM; for inhibition at 0.01 µM / inhibition at 0.1 µM: read-out: inhibition rate JAK3; for inhibition at 0.1 µM: at 100 nM; for IC50: kinase activity assay, Table 3. The method in brief: as §1

In the next experiment the target is CDK9 (Homo sapiens, UniProt P50750). The experiment can be described thus: experiment of inhibiting kinase activity (Caliper mobility shift assay), CDK9. The settings on record: for inhibition at 0.01 µM: at 10 nM; for inhibition at 0.01 µM / inhibition at 0.1 µM: read-out: inhibition rate CDK9; for inhibition at 0.1 µM: at 100 nM. The method, then: (§2) The inhibition rates of tested compounds on JAK1, JAK2, JAK3, TYK2, CDK7, CDK9, EGFR (T790M) and LRRK2 kinases were measured. The test concentrations of the compounds were 10 nM and 100 nM, and the detection was performed by replicate wells. Alternatively, compounds were 3-fold serial diluted from 10 µM for 10 concentrations in replicate wells.
(§3) The inhibitory effects of the compounds on JAK1, JAK2, JAK3, CDK7 and CDK9 kinases were detected by the method of Caliper mobility shift assay. 250 nL of the compound at 100-fold final concentration was transferred to a destination plate 384-well-plate by using a liquid handler Echo 550. A kinase solution at 2.5-fold final concentration was prepared with 1×kinase buffer. 10 µL of the kinase solution with 2.5-fold final concentration was added to compound wells and positive control wells; and 10 µL of 1×kinase buffer was added to negative control wells. The mixture was centrifuged at 1000 rpm for 30 seconds and then incubated at room temperature for 10 minutes. A mixed solution of ATP and kinase substrate at 5/3-fold final concentration was prepared with 1×kinase buffer, and 15 µL of the mixed solution of ATP and substrate at 5/3-fold final concentration was added to start the reaction. The 384-well plate was centrifuged at 1000 rpm for 30 seconds, shaked and mixed evenly, then incubated at room temperature for a corresponding time. 30 µL of stop solution was added to stop the kinase reaction, the mixture was centrifuged at 1000 rpm for 30 seconds, and shaked and mixed evenly. The conversion rate was read by Caliper EZ Reader. The conversion inhibition rate%=(average positive control conversion rate%-sample conversion rate%)/(average positive control conversion rate%-average negative control conversion rate%). Where negative control wells represent the conversion readings of the background well of kinase buffer; and positive control wells represent the conversion readings of wells without compound inhibition. With the log value of concentration as the x axis and the percentage inhibition rate as the y axis, the dose-response curve was fitted by the log (inhibitor) vs. response-variable slope of the analyzing softwar GraphPad Prism 5, and the IC50 values of each compound on enzyme activity were obtained. Calculation formula is as follows: y=Bottom+(Top-Bottom)/(1+10^((LogIC50-x)×hillslope)), where x is logarithm of inhibitor concentration; and Y is % inhibition rate.

The target in another experiment is CDK7 (Homo sapiens, UniProt P50613). The experiment can be described thus: experiment of inhibiting kinase activity (Caliper mobility shift assay), CDK7. The settings on record: for inhibition at 0.1 µM: at 100 nM. How it is done: as §2, §3
In a further experiment the target is LRRK2 (Homo sapiens, UniProt Q5S007). The experiment can be described thus: experiment of inhibiting kinase activity, LRRK2. Particulars: for inhibition at 0.01 µM: at 10 nM; for inhibition at 0.01 µM / inhibition at 0.1 µM: read-out: inhibition rate LRRK2; for inhibition at 0.1 µM: at 100 nM; for IC50: kinase activity assay, Table 3. The method, then: as §2
The target of the next experiment is TYK2 (Homo sapiens, UniProt P29597). The experiment in a line: experiment of inhibiting kinase activity, TYK2. The settings on record: read-out: inhibition rate TYK2; for inhibition at 0.1 µM: at 100 nM; for inhibition at 0.01 µM: at 10 nM. The method, then: as §2
The target of another experiment is JAK1 (Homo sapiens, UniProt P23458). The experiment in a line: experiment of inhibiting kinase activity (Caliper mobility shift assay), JAK1. Particulars: for inhibition at 0.1 µM: at 100 nM, read-out: inhibition rate JAK1; for IC50: kinase activity assay, Table 3. In short, it runs like this:
as §1

TYK2, sequence (P29597 whole entry): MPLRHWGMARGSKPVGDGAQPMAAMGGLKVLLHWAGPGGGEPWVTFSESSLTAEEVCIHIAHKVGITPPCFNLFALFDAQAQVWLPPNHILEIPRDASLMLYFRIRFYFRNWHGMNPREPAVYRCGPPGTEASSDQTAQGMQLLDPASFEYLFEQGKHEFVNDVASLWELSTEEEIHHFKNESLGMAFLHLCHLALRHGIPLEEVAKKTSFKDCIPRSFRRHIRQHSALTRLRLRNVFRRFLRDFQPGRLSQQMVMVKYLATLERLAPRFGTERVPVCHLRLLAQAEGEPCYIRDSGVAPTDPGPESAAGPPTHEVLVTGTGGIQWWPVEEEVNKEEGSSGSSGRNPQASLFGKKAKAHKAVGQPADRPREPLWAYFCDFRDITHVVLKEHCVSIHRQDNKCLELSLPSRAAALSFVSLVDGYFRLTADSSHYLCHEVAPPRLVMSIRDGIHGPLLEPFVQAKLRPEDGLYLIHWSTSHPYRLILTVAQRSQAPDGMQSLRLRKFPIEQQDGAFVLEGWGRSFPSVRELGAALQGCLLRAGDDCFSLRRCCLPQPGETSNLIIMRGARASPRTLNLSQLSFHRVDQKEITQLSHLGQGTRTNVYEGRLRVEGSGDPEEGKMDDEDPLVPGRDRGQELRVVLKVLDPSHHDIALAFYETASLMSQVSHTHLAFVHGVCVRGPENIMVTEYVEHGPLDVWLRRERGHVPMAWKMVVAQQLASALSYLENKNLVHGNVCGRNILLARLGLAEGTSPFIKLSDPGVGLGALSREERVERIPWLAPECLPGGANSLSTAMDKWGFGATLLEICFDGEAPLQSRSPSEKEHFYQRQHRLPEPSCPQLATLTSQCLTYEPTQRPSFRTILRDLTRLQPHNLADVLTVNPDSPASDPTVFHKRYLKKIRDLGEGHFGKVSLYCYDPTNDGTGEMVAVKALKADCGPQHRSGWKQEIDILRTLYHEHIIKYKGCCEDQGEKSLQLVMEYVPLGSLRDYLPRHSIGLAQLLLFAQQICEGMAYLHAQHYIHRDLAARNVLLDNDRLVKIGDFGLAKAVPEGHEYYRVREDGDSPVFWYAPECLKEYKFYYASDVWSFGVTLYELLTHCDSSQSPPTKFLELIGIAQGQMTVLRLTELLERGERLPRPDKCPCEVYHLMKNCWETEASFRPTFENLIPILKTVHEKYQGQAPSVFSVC
CDK9, sequence (P50750 whole entry): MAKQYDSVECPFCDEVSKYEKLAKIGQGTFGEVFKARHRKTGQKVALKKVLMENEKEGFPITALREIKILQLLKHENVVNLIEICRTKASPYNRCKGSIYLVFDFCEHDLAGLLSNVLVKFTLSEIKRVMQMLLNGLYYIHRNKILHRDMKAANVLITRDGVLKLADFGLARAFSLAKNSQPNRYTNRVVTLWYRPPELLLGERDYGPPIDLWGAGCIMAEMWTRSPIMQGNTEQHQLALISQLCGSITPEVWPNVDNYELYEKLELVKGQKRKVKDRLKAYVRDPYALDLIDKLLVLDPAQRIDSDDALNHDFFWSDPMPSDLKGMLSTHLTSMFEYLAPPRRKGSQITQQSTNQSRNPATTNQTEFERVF
CDK9, sequence (O60563 whole entry partner): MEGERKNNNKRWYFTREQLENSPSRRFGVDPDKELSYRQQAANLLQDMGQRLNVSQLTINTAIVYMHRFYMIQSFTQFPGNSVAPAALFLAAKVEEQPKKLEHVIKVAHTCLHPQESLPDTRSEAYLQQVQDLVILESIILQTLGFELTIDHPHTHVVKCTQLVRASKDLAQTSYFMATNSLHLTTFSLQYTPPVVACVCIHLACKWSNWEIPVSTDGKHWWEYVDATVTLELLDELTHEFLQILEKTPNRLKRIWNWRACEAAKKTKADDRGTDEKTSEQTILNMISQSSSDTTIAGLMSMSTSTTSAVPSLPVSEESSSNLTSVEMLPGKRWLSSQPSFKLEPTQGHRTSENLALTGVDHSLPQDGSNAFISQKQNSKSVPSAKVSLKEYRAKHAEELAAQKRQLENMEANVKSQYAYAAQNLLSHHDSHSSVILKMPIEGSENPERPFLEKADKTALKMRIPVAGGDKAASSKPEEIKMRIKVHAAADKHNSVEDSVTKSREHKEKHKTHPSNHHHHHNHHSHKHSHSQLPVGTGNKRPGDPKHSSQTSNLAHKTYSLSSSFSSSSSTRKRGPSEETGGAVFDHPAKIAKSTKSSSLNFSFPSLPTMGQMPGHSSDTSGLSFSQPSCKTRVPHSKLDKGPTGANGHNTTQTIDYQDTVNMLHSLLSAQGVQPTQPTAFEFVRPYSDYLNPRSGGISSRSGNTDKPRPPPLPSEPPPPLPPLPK
JAK2, sequence (O60674 whole entry): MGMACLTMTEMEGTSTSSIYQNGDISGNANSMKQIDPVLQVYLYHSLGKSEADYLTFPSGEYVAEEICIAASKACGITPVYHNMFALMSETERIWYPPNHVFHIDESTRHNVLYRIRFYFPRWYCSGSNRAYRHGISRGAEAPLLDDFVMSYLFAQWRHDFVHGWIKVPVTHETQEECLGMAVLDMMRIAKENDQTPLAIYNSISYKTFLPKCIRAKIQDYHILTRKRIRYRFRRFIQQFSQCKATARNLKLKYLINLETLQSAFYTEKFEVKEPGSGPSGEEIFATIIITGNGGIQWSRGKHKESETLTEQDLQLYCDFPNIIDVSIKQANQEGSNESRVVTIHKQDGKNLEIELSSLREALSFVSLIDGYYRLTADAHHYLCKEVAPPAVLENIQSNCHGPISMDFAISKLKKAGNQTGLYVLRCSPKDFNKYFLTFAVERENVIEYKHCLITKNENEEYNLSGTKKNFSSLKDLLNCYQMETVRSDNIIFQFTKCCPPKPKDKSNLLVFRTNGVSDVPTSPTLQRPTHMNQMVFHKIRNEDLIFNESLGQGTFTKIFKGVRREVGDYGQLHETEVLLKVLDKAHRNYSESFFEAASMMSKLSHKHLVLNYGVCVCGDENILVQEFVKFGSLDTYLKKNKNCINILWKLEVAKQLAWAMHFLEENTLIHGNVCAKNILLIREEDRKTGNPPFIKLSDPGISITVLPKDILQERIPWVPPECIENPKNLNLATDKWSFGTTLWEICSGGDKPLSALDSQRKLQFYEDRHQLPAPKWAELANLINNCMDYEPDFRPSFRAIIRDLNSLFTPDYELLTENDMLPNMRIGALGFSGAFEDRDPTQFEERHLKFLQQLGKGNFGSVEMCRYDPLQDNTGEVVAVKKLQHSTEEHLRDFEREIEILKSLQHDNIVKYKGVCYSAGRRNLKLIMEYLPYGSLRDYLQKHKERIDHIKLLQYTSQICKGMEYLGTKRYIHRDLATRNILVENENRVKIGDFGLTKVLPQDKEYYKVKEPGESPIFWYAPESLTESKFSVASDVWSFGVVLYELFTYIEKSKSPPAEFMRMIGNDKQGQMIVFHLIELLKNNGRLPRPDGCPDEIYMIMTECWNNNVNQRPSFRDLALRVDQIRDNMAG
JAK1, sequence (P23458 whole entry): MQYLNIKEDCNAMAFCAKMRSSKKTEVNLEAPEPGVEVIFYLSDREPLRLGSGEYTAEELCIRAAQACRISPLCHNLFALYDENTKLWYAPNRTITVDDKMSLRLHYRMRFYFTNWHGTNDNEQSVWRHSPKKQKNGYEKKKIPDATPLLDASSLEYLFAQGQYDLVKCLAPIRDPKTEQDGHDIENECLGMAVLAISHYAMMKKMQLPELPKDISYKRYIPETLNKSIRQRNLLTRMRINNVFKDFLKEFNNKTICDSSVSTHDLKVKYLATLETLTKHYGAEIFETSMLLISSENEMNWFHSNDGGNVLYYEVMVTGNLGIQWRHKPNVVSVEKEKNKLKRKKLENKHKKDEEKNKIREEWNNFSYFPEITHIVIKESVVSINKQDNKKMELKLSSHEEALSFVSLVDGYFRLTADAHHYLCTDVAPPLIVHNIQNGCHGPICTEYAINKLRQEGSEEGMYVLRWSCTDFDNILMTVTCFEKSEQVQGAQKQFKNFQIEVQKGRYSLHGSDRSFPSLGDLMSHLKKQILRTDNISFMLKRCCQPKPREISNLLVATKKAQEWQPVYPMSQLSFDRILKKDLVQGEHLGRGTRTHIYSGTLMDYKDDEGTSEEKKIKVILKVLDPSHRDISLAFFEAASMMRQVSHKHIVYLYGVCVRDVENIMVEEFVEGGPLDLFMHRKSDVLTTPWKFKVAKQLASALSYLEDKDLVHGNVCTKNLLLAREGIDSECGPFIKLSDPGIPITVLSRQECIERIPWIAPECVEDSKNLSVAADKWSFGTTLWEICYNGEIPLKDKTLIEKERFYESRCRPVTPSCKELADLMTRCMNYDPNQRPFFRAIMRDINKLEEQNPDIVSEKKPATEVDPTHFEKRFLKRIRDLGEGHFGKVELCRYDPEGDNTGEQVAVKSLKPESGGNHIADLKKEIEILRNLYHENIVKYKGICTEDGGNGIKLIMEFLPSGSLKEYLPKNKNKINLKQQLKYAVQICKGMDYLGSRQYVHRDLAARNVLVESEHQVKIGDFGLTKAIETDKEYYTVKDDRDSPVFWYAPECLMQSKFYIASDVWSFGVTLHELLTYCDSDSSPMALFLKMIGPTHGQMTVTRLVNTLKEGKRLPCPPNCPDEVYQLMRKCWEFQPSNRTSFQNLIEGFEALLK

As usually defined, the inhibition is the drop in the measured response relative to a control, in per cent. Consider `Cc1nc2c(F)cc(-c3nc(Nc4ccc5c(c4)OCCOCCN(C)CCO5)nc4[nH]ccc34)cc2n1C(C)C` [Example 31, N-(4-(4-fluoro-1-isopropyl-2-methyl-1H-benzo[d]imidazol-6-yl)-7H-pyrrolo[2,3-d]pyrimidin-2-yl)-7-methyl-2,3,6,7,8,9-hexahydro-5H-benzo[b][1,4,7]trioxa[10] azacyclododecan-13-amine], for which the inhibition at 0.01 µM on JAK2 is 40 to 79%; on JAK3, 40 to 79%; at CDK9 it was 25 to 39%; on LRRK2, 40 to 79%. In addition, the inhibition at 0.1 µM is over 80% at JAK2; over 80% at JAK3; 40 to 79% at CDK9; 40 to 79% at CDK7 (read-out: inhibition rate CDK7); over 80% at LRRK2; 40 to 79% at TYK2.

A word on the IC50: it is the concentration needed to halve the response being measured. For `CN1CCOc2ccc(Nc3ncc(F)c(-c4ccc(C(=O)NCC#N)cc4)n3)cc2OCC1` [Example 15, N-(Cyanomethyl)-4-(5-fluoro-2-((4-methyl-3,4,5,6-tetrahydro-2H-benzo[b][1,4,7]dioxazolin-9-yl)amino)pyrimidin-4-yl)benzamide], the inhibition at 0.01 µM on JAK2 is 40 to 79%; on TYK2, 25 to 39%. In addition, the inhibition at 0.1 µM was over 80% at JAK2; 40 to 79% on CDK9; 40 to 79% on LRRK2; 40 to 79% at JAK1; over 80% at TYK2. Further, the IC50 on JAK2 is under 50 nM; on JAK3, under 50 nM; against LRRK2, 50 to 200 nM; on JAK1, under 50 nM.

As for `CN1CCOc2ccc(Nc3nc(NCCP(C)(C)=O)c4cc[nH]c4n3)cc2OCC1` [Example 85, dimethyl(2-((2-((4-methyl-3,4,5,6-tetrahydro-2H-benzo[b][1,4,7]dioxazolin-9-yl)amino)-7H-pyrrolo[2,3-d]pyrimidin-4-yl)amino)ethyl)phosphine oxide], the inhibition at 0.1 µM on CDK9 is over 80%. On LRRK2, the IC50 is under 50 nM.

With `CC(C)S(=O)(=O)c1ccccc1Nc1nc(Nc2ccc3c(c2)OCCN(C)CCO3)nc2[nH]ccc12` [Example 35, N^4-(2-(isopropylsulfonyl)phenyl)-N^2-(4-methyl-3,4,5,6-tetrahydro-2H-benzo[b][1,4, 7]dioxazolin-9-yl)-7H-pyrrolo[2,3-d]pyrimidin-2,4-diamine], the inhibition at 0.01 µM on JAK2 is 40 to 79%; on JAK3, 25 to 39%; on LRRK2 it was over 80%. In addition, the inhibition at 0.1 µM on JAK2 is over 80%; on JAK3, over 80%; at CDK7 (read-out: inhibition rate CDK7) it was 40 to 79%; on LRRK2 it was over 80%; at JAK1, 40 to 79%; on TYK2 it was 40 to 79%. Besides, the IC50 on JAK2 was under 50 nM; at JAK3, under 50 nM; on CDK7 (kinase activity assay, Table 3), under 50 nM; against LRRK2, under 50 nM; at JAK1, 50 to 200 nM.

For the compound `CN1CCOc2ccc(Nc3ncc(F)c(-c4cnn(C(CC#N)C5CCCC5)c4)n3)cc2OCC1` (centres unmarked) [Example 25], the inhibition at 0.01 µM on JAK2 and at TYK2 was 40 to 79% throughout. Further, the inhibition at 0.1 µM is over 80% on JAK2; 40 to 79% on JAK3; 40 to 79% at CDK7 (read-out: inhibition rate CDK7); 40 to 79% at LRRK2; 40 to 79% on JAK1; over 80% at TYK2. For the same compound, the IC50 is under 50 nM on JAK2, under 50 nM at JAK3 and 50 to 200 nM at LRRK2.

Take `COc1ccc(F)cc1-c1nc(Nc2ccc3c(c2)OCCOCCN(C)CCO3)ncc1F` [Example 115, N-(5-fluoro-4-(5-fluoro-2-methoxyphenyl)pyrimidin-2-yl)-7-methyl-2,3,6,7,8,9-hexahydro-5H-benzo[b][1,4,7]trioxa[10]azacyclododecan-13-amine]: the inhibition at 0.01 µM at CDK9 lay in the range of 40 to 79%. Besides, at CDK9 (kinase activity assay, Table 3), the IC50 was under 50 nM.

`CC(C)S(=O)(=O)c1ccccc1Nc1nc(Nc2ccc3c(c2)OCCOCCN(C)CCO3)nc2[nH]cnc12` [Example 60, N^6-(2-(isopropylsulfonyl)phenyl)-N^2-(7-methyl-2,3,6,7,8,9-hexahydro-5H-benzo[b][1,4,7]trioxa[10]azacyclododecan-13-yl)-9H-purin-2,6-diamine]: the inhibition at 0.01 µM on JAK2 was 40 to 79%; at JAK3, 40 to 79%; at CDK7 (at 10 nM, read-out: inhibition rate CDK7) it was over 80%; at LRRK2 it was 40 to 79%. Moreover, the inhibition at 0.1 µM was over 80% on JAK2; over 80% at JAK3; 40 to 79% on CDK9; over 80% on CDK7 (read-out: inhibition rate CDK7); over 80% on LRRK2; 40 to 79% at TYK2.

With `CN1CCOCCOc2cc(Nc3nc(Nc4ccccc4P(C)(C)=O)c4cc[nH]c4n3)ccc2OCC1` [Example 32, dimethyl(2-((2-((7-methyl-2,3,6,7,8,9-hexahydro-5H-benzo[b][1,4,7]trioxa[10]azacyclododecan-13-yl)amino)-7H-pyrrolo[2,3-d]pyrimidin-4-yl)amino)phenyl)phosphine oxide], the inhibition at 0.01 µM is 40 to 79% on JAK2, over 80% at JAK3, over 80% at LRRK2 and 25 to 39% at TYK2. Moreover, the inhibition at 0.1 µM on JAK2 is over 80%; at JAK3 it was over 80%; at CDK9 it was 25 to 39%; on CDK7 (read-out: inhibition rate CDK7), 40 to 79%; at LRRK2, over 80%; at TYK2 it was 40 to 79%. The same compound returned an IC50 against LRRK2 of under 50 nM.
